Source: patent US20240285971A1, “Intratumoral Alpha-Emitter Radiation in Combination with Vasculature Inhibitors” (priority 2021, published 2024)

System: Glioblastoma Multiforme (GBM) xerographs, U87 cells
Test: DaRT with systemic BEV on U87 GBM xenografts, BEV started five days post seed insertion (FIG. 3)
Format: in vivo, athymic nude mice
Details: U87 intracutaneous flank tumors; single seed in tumor; BEV or IgG 5 mg/kg i.p., 3 doses per week for 3 weeks, from five days post seed insertion; compared with other groups
Procedure: In the experiment, the efficacy of DaRT with a systemic administration of BEV was tested on Glioblastoma Multiforme (GBM) xerographs. U87 cells were intracutaneously inoculated in a total of 5·10^6 cells per mouse (in a volume of 100 μl) to the flank of athymic nude mice. The tumors were allowed to grow to an average size of 5-6 mm (longest diameter) for 9 days, when either a single DaRT or inert (non-radioactive control) seed was inserted to the middle of each tumor. Five days post seed insertion, each mouse received an i.p (intraperitoneal) administration of either IgG (control antibody) or BEV. This administration included 3 doses per week (5 mg/kg each) for 3 consecutive weeks (a total of 9 doses). The mice were divided to 4 treatment groups as follows: • a. Inert+Control IgG (untreated control); • b. Inert+BEV (Bev as a monotherapy); • c. DaRT+Control IgG (DaRT as a monotherapy); • d. DaRT+BEV (The combined modality)
Tumor volumes were monitored 3 times per week, along with radioactivity measurement using a Geiger counter to confirm that the DaRT seeds are present in the tumor.

Bevacizumab
tumor growth / tumor volume: moderate but significant attenuation in tumor growth
